# Species on record: Rattus norvegicus
# Assay: DrugMatrix - Regimen: Daily Repeat
# Assay type: toxicity, organism-based, Sprague-Dawley
# Parameters: regimen Daily Repeat, gender Male, age 6-8 weeks
# Settings: in vivo, po, route oral GAVAGE, vehicle 100 % WATER; for ABSOLUTE BASOPHIL / ABSOLUTE EOSINOPHIL / ABSOLUTE LYMPHOCYTE / ABSOLUTE MONOCYTE / ABSOLUTE SEGMENTED NEUTROPHIL / BASOPHIL / EOSINOPHIL / ERYTHROCYTE COUNT / HEMATOCRIT / HEMOGLOBIN / LEUKOCYTE COUNT / LYMPHOCYTE / MEAN CORPUSCULAR HEMOGLOBIN / MEAN CORPUSCULAR HEMOGLOBIN CONCENTRATION / MEAN CORPUSCULAR VOLUME / MONOCYTE / NEUTROPHIL / NUCLEATED RED BLOOD CELLS / PLATELET COUNT: tissue Blood; for ALANINE AMINOTRANSFERASE / ALBUMIN / ALKALINE PHOSPHATASE / ASPARTATE AMINOTRANSFERASE / BLOOD UREA NITROGEN / CARBON DIOXIDE / CHLORIDE / CHOLESTEROL / CREATINE PHOSPHOKINASE / CREATININE / GLUCOSE / LACTATE DEHYDROGENASE / LIPASE / PHOSPHORUS / POTASSIUM / SODIUM / TOTAL BILIRUBIN / TOTAL PROTEIN / URIC ACID: tissue Plasma
# [1] = 0 mg/kg, 72 h, dose level Control, time 3 day
# [2] = 0 mg/kg, 120 h, dose level Control, time 5 day
# [3] = 100 mg/kg, 72 h, dose level High, time 3 day
# [4] = 100 mg/kg, 120 h, dose level High, time 5 day
smiles,measurement,setting,value
CN(C)CCOC(c1ccccc1)c1ccccc1 [DIPHENHYDRAMINE],ABSOLUTE BASOPHIL,[1],0 CELLS/uL
same,ABSOLUTE EOSINOPHIL,[1],20.17 CELLS/uL
same,ABSOLUTE LYMPHOCYTE,[1],12371.67 CELLS/uL
same,ABSOLUTE MONOCYTE,[1],166 CELLS/uL
same,ABSOLUTE SEGMENTED NEUTROPHIL,[1],1292.17 CELLS/uL
same,BASOPHIL,[1],0%
same,EOSINOPHIL,[1],0.17%
same,ERYTHROCYTE COUNT,[1],5.46 x10E6/uL
same,HEMATOCRIT,[1],34.38%
same,HEMOGLOBIN,[1],13.32 G/DL
same,LEUKOCYTE COUNT,[1],13.85 x10E3/uL
same,LYMPHOCYTE,[1],88.5%
same,MEAN CORPUSCULAR HEMOGLOBIN,[1],24.42 pg
same,MEAN CORPUSCULAR HEMOGLOBIN CONCENTRATION,[1],38.7 G/DL
same,MEAN CORPUSCULAR VOLUME,[1],63.07 fL
same,MONOCYTE,[1],1.17%
same,NEUTROPHIL,[1],10.17%
same,NUCLEATED RED BLOOD CELLS,[1],0.17 /100WBC
same,PLATELET COUNT,[1],1193.5 x10E3/uL
same,ALANINE AMINOTRANSFERASE,[1],54.5 u/L
same,ALBUMIN,[1],4.02 G/DL
same,ALKALINE PHOSPHATASE,[1],346.5 u/L
same,ASPARTATE AMINOTRANSFERASE,[1],103.17 u/L
same,BLOOD UREA NITROGEN,[1],16.5 mg/dL
same,CARBON DIOXIDE,[1],29.83 mmol/L
same,CHLORIDE,[1],99.5 MEQ/L
same,CHOLESTEROL,[1],72.5 mg/dL
same,CREATINE PHOSPHOKINASE,[1],532.5 u/L
same,CREATININE,[1],0.18 mg/dL
same,GLUCOSE,[1],168.5 mg/dL
same,LACTATE DEHYDROGENASE,[1],536.5 u/L
same,LIPASE,[1],11.17 u/L
same,PHOSPHORUS,[1],11.48 mg/dL
same,POTASSIUM,[1],5.95 MEQ/L
same,SODIUM,[1],140.5 MEQ/L
same,TOTAL BILIRUBIN,[1],0.18 mg/dL
same,TOTAL PROTEIN,[1],5.77 G/DL
same,URIC ACID,[1],1.42 mg/dL
same,ABSOLUTE BASOPHIL,[2],0 CELLS/uL
same,ABSOLUTE EOSINOPHIL,[2],22.83 CELLS/uL
same,ABSOLUTE LYMPHOCYTE,[2],12202.83 CELLS/uL
same,ABSOLUTE MONOCYTE,[2],158 CELLS/uL
same,ABSOLUTE SEGMENTED NEUTROPHIL,[2],1283 CELLS/uL
same,BASOPHIL,[2],0%
same,EOSINOPHIL,[2],0.17%
same,ERYTHROCYTE COUNT,[2],5.88 x10E6/uL
same,HEMATOCRIT,[2],36.62%
same,HEMOGLOBIN,[2],14.07 G/DL
same,LEUKOCYTE COUNT,[2],13.67 x10E3/uL
same,LYMPHOCYTE,[2],89.5%
same,MEAN CORPUSCULAR HEMOGLOBIN,[2],23.95 pg
same,MEAN CORPUSCULAR HEMOGLOBIN CONCENTRATION,[2],38.43 G/DL
same,MEAN CORPUSCULAR VOLUME,[2],62.28 fL
same,MONOCYTE,[2],1.17%
same,NEUTROPHIL,[2],9.17%
same,NUCLEATED RED BLOOD CELLS,[2],0.17 /100WBC
same,PLATELET COUNT,[2],1198 x10E3/uL
same,ALANINE AMINOTRANSFERASE,[2],51 u/L
same,ALBUMIN,[2],4.3 G/DL
same,ALKALINE PHOSPHATASE,[2],343 u/L
same,ASPARTATE AMINOTRANSFERASE,[2],89.83 u/L
same,BLOOD UREA NITROGEN,[2],17.67 mg/dL
same,CARBON DIOXIDE,[2],27.17 mmol/L
same,CHLORIDE,[2],98.33 MEQ/L
same,CHOLESTEROL,[2],82.5 mg/dL
same,CREATINE PHOSPHOKINASE,[2],533.33 u/L
same,CREATININE,[2],0.18 mg/dL
same,GLUCOSE,[2],152.67 mg/dL
same,LACTATE DEHYDROGENASE,[2],220.33 u/L
same,LIPASE,[2],11.5 u/L
same,PHOSPHORUS,[2],11.25 mg/dL
same,POTASSIUM,[2],6.29 MEQ/L
same,SODIUM,[2],140.53 MEQ/L
same,TOTAL BILIRUBIN,[2],0.22 mg/dL
same,TOTAL PROTEIN,[2],6.12 G/DL
same,URIC ACID,[2],1.42 mg/dL
same,ABSOLUTE BASOPHIL,[3],0 CELLS/uL
same,ABSOLUTE EOSINOPHIL,[3],48.67 CELLS/uL
same,ABSOLUTE LYMPHOCYTE,[3],13023.67 CELLS/uL
same,ABSOLUTE MONOCYTE,[3],77 CELLS/uL
same,ABSOLUTE SEGMENTED NEUTROPHIL,[3],750.67 CELLS/uL
same,BASOPHIL,[3],0%
same,EOSINOPHIL,[3],0.33%
same,ERYTHROCYTE COUNT,[3],5.83 x10E6/uL
same,HEMATOCRIT,[3],36.17%
same,HEMOGLOBIN,[3],14.33 G/DL
same,LEUKOCYTE COUNT,[3],13.9 x10E3/uL
same,LYMPHOCYTE,[3],93.67%
same,MEAN CORPUSCULAR HEMOGLOBIN,[3],24.6 pg
same,MEAN CORPUSCULAR HEMOGLOBIN CONCENTRATION,[3],39.67 G/DL
same,MEAN CORPUSCULAR VOLUME,[3],62.07 fL
same,MONOCYTE,[3],0.67%
same,NEUTROPHIL,[3],5.33%
same,NUCLEATED RED BLOOD CELLS,[3],0 /100WBC
same,PLATELET COUNT,[3],1203 x10E3/uL
same,ALANINE AMINOTRANSFERASE,[3],46.67 u/L
same,ALBUMIN,[3],4 G/DL
same,ALKALINE PHOSPHATASE,[3],345.33 u/L
same,ASPARTATE AMINOTRANSFERASE,[3],88.67 u/L
same,BLOOD UREA NITROGEN,[3],16.67 mg/dL
same,CARBON DIOXIDE,[3],30.33 mmol/L
same,CHLORIDE,[3],100.33 MEQ/L
same,CHOLESTEROL,[3],78 mg/dL
same,CREATINE PHOSPHOKINASE,[3],422.33 u/L
same,CREATININE,[3],0.14 mg/dL
same,GLUCOSE,[3],146 mg/dL
same,LACTATE DEHYDROGENASE,[3],334.67 u/L
same,LIPASE,[3],11.67 u/L
same,PHOSPHORUS,[3],12.1 mg/dL
same,POTASSIUM,[3],6.05 MEQ/L
same,SODIUM,[3],141 MEQ/L
same,TOTAL BILIRUBIN,[3],0.17 mg/dL
same,TOTAL PROTEIN,[3],5.67 G/DL
same,URIC ACID,[3],1.3 mg/dL
same,ABSOLUTE BASOPHIL,[4],0 CELLS/uL
same,ABSOLUTE EOSINOPHIL,[4],0 CELLS/uL
same,ABSOLUTE LYMPHOCYTE,[4],12726.67 CELLS/uL
same,ABSOLUTE MONOCYTE,[4],228 CELLS/uL
same,ABSOLUTE SEGMENTED NEUTROPHIL,[4],1012 CELLS/uL
same,BASOPHIL,[4],0%
same,EOSINOPHIL,[4],0%
same,ERYTHROCYTE COUNT,[4],5.75 x10E6/uL
same,HEMATOCRIT,[4],34.8%
same,HEMOGLOBIN,[4],13.73 G/DL
same,LEUKOCYTE COUNT,[4],13.97 x10E3/uL
same,LYMPHOCYTE,[4],91.33%
same,MEAN CORPUSCULAR HEMOGLOBIN,[4],23.9 pg
same,MEAN CORPUSCULAR HEMOGLOBIN CONCENTRATION,[4],39.47 G/DL
same,MEAN CORPUSCULAR VOLUME,[4],60.53 fL
same,MONOCYTE,[4],1.67%
same,NEUTROPHIL,[4],7%
same,NUCLEATED RED BLOOD CELLS,[4],0 /100WBC
same,PLATELET COUNT,[4],1281 x10E3/uL
same,ALANINE AMINOTRANSFERASE,[4],54.33 u/L
same,ALBUMIN,[4],3.93 G/DL
same,ALKALINE PHOSPHATASE,[4],386 u/L
same,ASPARTATE AMINOTRANSFERASE,[4],79.33 u/L
same,BLOOD UREA NITROGEN,[4],16.67 mg/dL
same,CARBON DIOXIDE,[4],25.67 mmol/L
same,CHLORIDE,[4],99 MEQ/L
same,CHOLESTEROL,[4],60 mg/dL
same,CREATINE PHOSPHOKINASE,[4],323.33 u/L
same,CREATININE,[4],0.11 mg/dL
same,GLUCOSE,[4],154.67 mg/dL
same,LACTATE DEHYDROGENASE,[4],155.33 u/L
same,LIPASE,[4],11.33 u/L
same,PHOSPHORUS,[4],11.47 mg/dL
same,POTASSIUM,[4],6.2 MEQ/L
same,SODIUM,[4],141.53 MEQ/L
same,TOTAL BILIRUBIN,[4],0.2 mg/dL
same,TOTAL PROTEIN,[4],5.5 G/DL
same,URIC ACID,[4],1.97 mg/dL

# Reference: ChEMBL document CHEMBL3885881, “DrugMatrix”
